Experimental data from the NIST ThermoML archive (doi:10.1021/je400408w).
± gives the expanded uncertainty stated by the source.

Legend:
[1] = molar heat capacity at constant pressure; conditions: 100 kPa, Liquid
[2] = 101.33 kPa, Liquid; for speed of sound: Pulse-echo method; for mass density: Vibrating tube method
[3] = molar heat capacity at constant pressure; xn = mol fraction of the nth substance listed; conditions: 100 kPa, Liquid

Cc1ccccc1Cl [2-chlorotoluene]
Conditions	mass density, 293.15 K [kg/m3]	mass density, 298.15 K [kg/m3]	mass density, 303.15 K [kg/m3]	molar heat capacity at constant pressure, 293.15 K [J/K/mol]	molar heat capacity at constant pressure, 298.15 K [J/K/mol]	molar heat capacity at constant pressure, 303.15 K [J/K/mol]	speed of sound, 293.15 K [m/s]	speed of sound, 298.15 K [m/s]	speed of sound, 303.15 K [m/s]
[1]	–	–	–	176.43 ± 1.6	178.21 ± 1.6	180.01 ± 1.7	–	–	–
[2]	1082.22 ± 1	1077.34 ± 1	1072.46 ± 0.99	–	–	–	1316.8 ± 2.1	1298.7 ± 2.1	1280.7 ± 2.1

O=C1CCCN1 [2-pyrrolidinone]
Conditions	mass density, 293.15 K [kg/m3]	mass density, 298.15 K [kg/m3]	mass density, 303.15 K [kg/m3]	molar heat capacity at constant pressure, 293.15 K [J/K/mol]	molar heat capacity at constant pressure, 298.15 K [J/K/mol]	molar heat capacity at constant pressure, 303.15 K [J/K/mol]	speed of sound, 293.15 K [m/s]	speed of sound, 298.15 K [m/s]	speed of sound, 303.15 K [m/s]
[1]	–	–	–	168.36 ± 1.6	169.55 ± 1.6	171.18 ± 1.6	–	–	–
[2]	1111.28 ± 0.32	1107.15 ± 0.32	1103.06 ± 0.31	–	–	–	1651.4 ± 1.3	1635 ± 1.3	1618.7 ± 1.3

Cc1cccc(Cl)c1 [3-chlorotoluene]
Conditions	mass density, 293.15 K [kg/m3]	mass density, 298.15 K [kg/m3]	mass density, 303.15 K [kg/m3]	molar heat capacity at constant pressure, 293.15 K [J/K/mol]	molar heat capacity at constant pressure, 298.15 K [J/K/mol]	molar heat capacity at constant pressure, 303.15 K [J/K/mol]	speed of sound, 293.15 K [m/s]	speed of sound, 298.15 K [m/s]	speed of sound, 303.15 K [m/s]
[1]	–	–	–	175.21 ± 1.6	176.46 ± 1.6	177.67 ± 1.6	–	–	–
[2]	1072.12 ± 0.99	1067.23 ± 0.98	1062.33 ± 0.97	–	–	–	1313.6 ± 2.1	1295.5 ± 2.1	1277.3 ± 2.1

Cc1ccc(Cl)cc1 [4-chlorotoluene]
Conditions	mass density, 293.15 K [kg/m3]	mass density, 298.15 K [kg/m3]	mass density, 303.15 K [kg/m3]	molar heat capacity at constant pressure, 293.15 K [J/K/mol]	molar heat capacity at constant pressure, 298.15 K [J/K/mol]	molar heat capacity at constant pressure, 303.15 K [J/K/mol]	speed of sound, 293.15 K [m/s]	speed of sound, 298.15 K [m/s]	speed of sound, 303.15 K [m/s]
[1]	–	–	–	175.66 ± 1.6	177.95 ± 1.6	180.37 ± 1.7	–	–	–
[2]	1069.27 ± 0.29	1064.37 ± 0.28	1059.46 ± 0.28	–	–	–	1306.5 ± 1.2	1288.4 ± 1.2	1270.3 ± 1.2

Cc1ccc(Cl)cc1 [4-chlorotoluene] + CN1CCCC1=O
molar heat capacity at constant pressure [J/K/mol], [3]
Conditions	293.15 K	298.15 K	303.15 K
x2 = 0	175.66 ± 1.6	177.95 ± 1.6	180.37 ± 1.7
x2 = 0.0671	176.7 ± 1.6	178.71 ± 1.7	180.9 ± 1.7
x2 = 0.1128	177.44 ± 1.6	179.35 ± 1.7	181.36 ± 1.7
x2 = 0.1487	178.03 ± 1.6	179.8 ± 1.7	181.81 ± 1.7
x2 = 0.1876	178.67 ± 1.7	180.38 ± 1.7	182.29 ± 1.7
x2 = 0.2219	179.21 ± 1.7	180.88 ± 1.7	182.72 ± 1.7
x2 = 0.2615	179.85 ± 1.7	181.44 ± 1.7	183.16 ± 1.7
x2 = 0.2987	180.33 ± 1.7	181.87 ± 1.7	183.61 ± 1.7
x2 = 0.3328	180.77 ± 1.7	182.28 ± 1.7	183.94 ± 1.7
x2 = 0.3728	181.29 ± 1.7	182.72 ± 1.7	184.22 ± 1.7
x2 = 0.4137	181.62 ± 1.7	183.02 ± 1.7	184.44 ± 1.7
x2 = 0.4512	181.89 ± 1.7	183.22 ± 1.7	184.54 ± 1.7
x2 = 0.4928	182.07 ± 1.7	183.31 ± 1.7	184.53 ± 1.7
x2 = 0.5316	182.09 ± 1.7	183.2 ± 1.7	184.46 ± 1.7
x2 = 0.5773	181.94 ± 1.7	182.93 ± 1.7	184.08 ± 1.7
x2 = 0.6154	181.61 ± 1.7	182.53 ± 1.7	183.54 ± 1.7
x2 = 0.6542	181.16 ± 1.7	182.01 ± 1.7	182.89 ± 1.7
x2 = 0.6927	180.46 ± 1.7	181.23 ± 1.7	182.04 ± 1.7
x2 = 0.7326	179.54 ± 1.7	180.21 ± 1.7	180.88 ± 1.7
x2 = 0.7732	178.32 ± 1.6	178.9 ± 1.7	179.49 ± 1.7
x2 = 0.8142	176.8 ± 1.6	177.33 ± 1.6	177.84 ± 1.6
x2 = 0.8315	176 ± 1.6	176.54 ± 1.6	177.12 ± 1.6
x2 = 0.8715	174.08 ± 1.6	174.58 ± 1.6	175.13 ± 1.6
x2 = 0.9153	171.57 ± 1.6	172.16 ± 1.6	172.62 ± 1.6
x2 = 0.9534	169.04 ± 1.6	169.62 ± 1.6	170.26 ± 1.6

Cc1ccc(Cl)cc1 [4-chlorotoluene] + O=C1CCCN1
molar heat capacity at constant pressure [J/K/mol], [3]
Conditions	293.15 K	298.15 K	303.15 K
x2 = 0	175.66 ± 1.6	177.95 ± 1.6	180.37 ± 1.7
x2 = 0.0386	175.99 ± 1.6	178.08 ± 1.6	180.47 ± 1.7
x2 = 0.0724	176.3 ± 1.6	178.23 ± 1.6	180.58 ± 1.7
x2 = 0.1123	176.65 ± 1.6	178.52 ± 1.7	180.66 ± 1.7
x2 = 0.1526	177.03 ± 1.6	178.78 ± 1.7	180.84 ± 1.7
x2 = 0.1926	177.35 ± 1.6	179.04 ± 1.7	180.93 ± 1.7
x2 = 0.2317	177.67 ± 1.6	179.22 ± 1.7	181.06 ± 1.7
x2 = 0.2725	177.98 ± 1.6	179.48 ± 1.7	181.12 ± 1.7
x2 = 0.3126	178.18 ± 1.6	179.64 ± 1.7	181.1 ± 1.7
x2 = 0.3516	178.38 ± 1.6	179.7 ± 1.7	181.14 ± 1.7
x2 = 0.3916	178.43 ± 1.6	179.77 ± 1.7	181.06 ± 1.7
x2 = 0.4332	178.43 ± 1.6	179.72 ± 1.7	180.88 ± 1.7
x2 = 0.4753	178.35 ± 1.6	179.67 ± 1.7	180.61 ± 1.7
x2 = 0.5121	178.24 ± 1.6	179.47 ± 1.7	180.38 ± 1.7
x2 = 0.5512	177.97 ± 1.6	179.17 ± 1.7	180.03 ± 1.7
x2 = 0.5925	177.61 ± 1.6	178.79 ± 1.7	179.53 ± 1.7
x2 = 0.6325	177.15 ± 1.6	178.25 ± 1.6	179.05 ± 1.7
x2 = 0.6715	176.58 ± 1.6	177.74 ± 1.6	178.48 ± 1.7
x2 = 0.7122	175.92 ± 1.6	176.99 ± 1.6	177.81 ± 1.6
x2 = 0.7534	175.18 ± 1.6	176.18 ± 1.6	177 ± 1.6
x2 = 0.7921	174.31 ± 1.6	175.32 ± 1.6	176.22 ± 1.6
x2 = 0.8324	173.32 ± 1.6	174.4 ± 1.6	175.34 ± 1.6
x2 = 0.8731	172.28 ± 1.6	173.34 ± 1.6	174.46 ± 1.6
x2 = 0.9123	171.14 ± 1.6	172.21 ± 1.6	173.5 ± 1.6
x2 = 0.9543	169.86 ± 1.6	171 ± 1.6	172.43 ± 1.6

CN1CCCC1=O [N-methylpyrrolidone]
Conditions	mass density, 293.15 K [kg/m3]	mass density, 298.15 K [kg/m3]	mass density, 303.15 K [kg/m3]	molar heat capacity at constant pressure, 293.15 K [J/K/mol]	molar heat capacity at constant pressure, 298.15 K [J/K/mol]	molar heat capacity at constant pressure, 303.15 K [J/K/mol]	speed of sound, 293.15 K [m/s]	speed of sound, 298.15 K [m/s]	speed of sound, 303.15 K [m/s]
[1]	–	–	–	165.44 ± 1.5	166.22 ± 1.5	166.92 ± 1.6	–	–	–
[2]	1033.28 ± 0.26	1028.26 ± 0.25	1023.49 ± 0.25	–	–	–	1565.6 ± 1.3	1546.1 ± 1.2	1527.3 ± 1.2

CN1CCCC1=O [N-methylpyrrolidone] + Cc1ccc(Cl)cc1
[3], x1 = 1
Conditions	molar heat capacity at constant pressure [J/K/mol]
293.15 K	165.44 ± 1.5
298.15 K	166.22 ± 1.5
303.15 K	166.92 ± 1.6

CN1CCCC1=O [N-methylpyrrolidone] + Cc1cccc(Cl)c1
[3], x1 = 1
Conditions	molar heat capacity at constant pressure [J/K/mol]
293.15 K	165.44 ± 1.5
298.15 K	166.22 ± 1.5
303.15 K	166.92 ± 1.6

CN1CCCC1=O [N-methylpyrrolidone] + Cc1ccccc1Cl
[3], x1 = 1
Conditions	molar heat capacity at constant pressure [J/K/mol]
293.15 K	165.44 ± 1.5
298.15 K	166.22 ± 1.5
303.15 K	166.92 ± 1.6
